The record followed here is patent US20250034185A1 (priority 2021, published 2025).

Structures are written as SMILES. “Also recorded” adds a separate entry of the source.

Series [1] in a line: Single ascending dose study of P5P analog 16, oral, rats. The series is classed as in vivo. The conditions noted are these: single PO dose 10, 30, 100, 300 mg/kg, rat, observed to 24 hrs. Here is the method: Single ascending dose studies were carried out (Example 97: P5P analog 16i: single ascending dose study) to assess the maximum tolerability of a P5P analog (compound of formula 16i) in rats under 4 different doses under one single administration via Per Os (P.O.—oral) route, and to inform the linearity of pharmacokinetics (PK) with multiple dosing.
In order to isolate the effects of the administered compound of formula 16i on pyridoxine (PL) and P5P (PLP) levels, the basal levels of both PL and P5P were subtracted from the measured concentrations. Baseline subtraction was accomplished by subtracting pre-dose concentrations of either PL or P5P from the subsequent values in the time course.
Formulation—P5P analog 16 was formulated in 1% methylcellulose in water on the day of dosing.
(§1) Animals and group—17 CD ♂ rats with an approx. weigh of ˜250 g were used. Animals were split into 4 groups+1 extra (n=4 for each group). Animals were allowed a 5-day acclimatization period in animal facility. The animal room environment was controlled (temperature 22 f 0.2° C.; relative humidity 55 f 25%; 12 hours light/dark cycle, and 12 air changes per hour). A standard certified commercial rodent chow was provided to the animals ad libitum. Procedures involving the care and use of animals in this study were reviewed and approved by the Institutional Animal Care and Use Committee (IACUC) prior to conduct. One day prior to dosing on D-1, Rats were divided in 4 groups (Table 6). Animals were identified and bled for pre-dose blood. Rats in all groups were fasted overnight (12-14 hours) with access of water.
On day 0, animals in groups 1-2-3 were weighed, and dosed by oral gavage as described in Table 6. Each remaining dosing solutions were stirred (or slightly vortexed), a 50 ul sample were collected and placed in separate tube and both vials immediately frozen on dry ice. Food tray were returned to animals two hours post dosing.
Cage-side observation were done upon dosing, at the end of day, and 24 hrs post dosing (record adverse effect if observed). Animal were weighed again at 24 hrs post dosing.
Blood was collected at indicated time points for all groups at: Pre-dose, 15′, 30′, 1 h, 2 h, 4 h, 6 h, 8 h, 24 h.
(§2) About 150 μL of blood was collected at indicated time points below using K2EDTA tubes. Blood was kept on ice until centrifugation at 4° C. at 6000 RCF for 10 min. Plasma was collected and kept on dry ice until transferred at −80° C.

Series [2] is described as follows: Pharmacokinetic study 1: P5P and P5P analog 16, IV and PO, rats. Conditions: rat. The series is classed as in vivo. Here is the method:
Pharmacokinetic study 1 was carried out (see Example 98: P5P analog 16i: Pharmacokinetic study 1) to assess if P5P analog 16i was able to be converted to P5P and increase plasma P5P, to assess if P5P analog 16i was orally available, and to compare the ability of PO P5P analog 16i and PO P5P to increase plasma P5P.
In order to isolate the effects of the administered P5P analog 16i on pyridoxine (PL) and P5P (PLP) levels, the basal levels of both PL and P5P were subtracted from the measured concentrations. Baseline subtraction was accomplished by subtracting pre-dose concentrations of either PL or P5P from the subsequent values in the time course.
Formulation—Both P5P (pyridoxal-5-phosphate) and P5P analog 16 were formulated in phosphate buffered saline (PBS) as homogenous solutions on the day of dosing.
as §1, with “and group—13” for “and group—17”, “extra (n=3” for “extra (n=4”, “(Table 7).” for “(Table 6). Animals were identified and bled for pre-dose blood.”, “in Group 3 and 4” for “in all groups”, “access to” for “access of”
On day 0, animals were identified, weighted, and dosed by intravenous (IV) injection or oral gavage (PO) as described in Table 7. Food tray were returned to Group 3 and 4, 2 hrs post dosing.
(§3) Blood was collected at indicated time points below for all groups: Pre-dose, 5′, 15′, 30′, 1 h, 2 h, 4 h, 6 h, 8 h, 24 h.
as §2

Series [3] is described as follows: Pharmacokinetic study 4: SP isomer, RP isomer and D-amino acid prodrug, IV and PO, rats. Conditions: rat. The series is classed as in vivo.
Text: The goal of the study was to compare the pharmacokinetic (PK) profiles of the S-isomer (16i) and the R-isomer (16iii) at the phosphorus center, and to assess the effect of using the D-amino acid (16i with SP and RP isomers) on PK profile.
In order to isolate the effects of the administered agents on PL and PLP levels, the basal levels of both PL and PLP subtracted from the measured concentrations. Baseline subtraction was accomplished by subtracting pre-dose concentrations of either PL or PLP from the subsequent values in the time course.
Formulation—Prodrugs 16i (SP isomer), 16i (RP isomer) and 16i′ (16i with D-amino acid racemate) were formulated in phosphate buffered saline (PBS) as a homogenous solution on the day of dosing.
as §1, with “and group—19” for “and group—17”, “into 6” for “into 4”, “extra (n=3” for “extra (n=4”, “in 6” for “in 4”, “(Table 1).” for “(Table 6).”, “in Group 4, 5 and 6” for “in all groups”
On day 0, animals were weighted, and dosed by IV injection or by oral gavage as described in Table 10. Food tray were returned to Group 4, 5 and 6 two hours post dosing.
as §3, §2

Series [4] can be described thus: Pharmacokinetic study 2: P5P analogs 16 and 16v, IV and PO, rats. Format: in vivo. The conditions noted are these: rat. Here is the method: Pharmacokinetic study 2 was carried out (Example 99: P5P analog 16i: Pharmacokinetic study 2) to assess the effect of the P5P analog 16v compared to P5P analog 16i.
In order to isolate the effects of the administered P5P analogs 16i and 16v on pyridoxine (PL) and P5P levels, the basal levels of both PL and P5P were subtracted from the measured concentrations. Baseline subtraction was accomplished by subtracting pre-dose concentrations of either PL or P5P from the subsequent values in the time course.
Formulation—Both P5P analog 16 and P5P analog 16v were formulated in 40% hydroxypropyl-β-cyclodextrin in water as homogenous solutions on the day of dosing.
as §1, with “and group—13” for “and group—17”, “extra (n=3” for “extra (n=4”, “(Table 8).” for “(Table 6). Animals were identified and bled for pre-dose blood.”, “in Group 3 and 4” for “in all groups”, “access to” for “access of”
On day 0, animals were identified, weighted, and dosed by intravenous (IV) injection or oral gavage (PO) as described in Table 8. Food tray were returned to Group 3 and 4, 2 hrs post dosing.
as §3, §2

The nature of series [5]: Pharmacokinetic study 3: P5P analog 16vi and Compound II.I., IV and PO, rats. Format: in vivo. The conditions noted are these: rat. As for the experimental part: […] (Example 100: P5P analog 16vi and compound II.I.: Pharmacokinetic study 3) to assess the effect of a P5P analog not encompassed by the compound of Formula I (Compound II.I.), amino acid modification (P5P analog 16vi) and compounds of formula 16iii, 16i and a racemic mixture of 16i.
In order to isolate the effects of the administered Compound II.I. and P5P analog 16vi on pyridoxine (PL) and P5P levels, the basal levels of both PL and P5P were subtracted from the measured concentrations. Baseline subtraction was accomplished by subtracting pre-dose concentrations of either PL or P5P from the subsequent values in the time course.
Formulation—Compound II.I. was formulated in 0.9% saline while P5P analog 16vi was formulated in 40% hydroxypropyl-β-cyclodextrin in water as a homogenous solution on the day of dosing.
as §1, with “and group—13” for “and group—17”, “extra (n=3” for “extra (n=4”, “(Table 9).” for “(Table 6). Animals were identified and bled for pre-dose blood.”, “in Group 3 and 4” for “in all groups”, “access to” for “access of”
On day 0, animals were identified, weighted, and dosed by intravenous (IV) injection or oral gavage (PO) as described in Table 9. Food tray were returned to Group 3 and 4, 2 hrs post dosing.
as §3
About 150 μL of blood was collected at indicated time points below using K2EDTA tubes. Blood was kept on ice until centrifugation at 4° C. at 6000 RCF for 10 min. […]

A further series relates to plasma enzymes. Conditions: Sprague Dawley, rat.

Turning to `Cc1ncc(COP(=O)(N[C@@H](C)C(=O)OC(C)C)Oc2ccccc2)c(C=O)c1O` (mixture of isomers) [Compound 16, (2S)-Isopropyl 2-(((4-formyl-5-hydroxy-6-methylpyridin-3-yl)methoxy)(phenoxy)phosphorylamino)propanoate], the “adverse reactions / clinical signs” value in series [1] is listed as “no adverse reactions”. Moreover, the “time after which the dosed compound is no longer left/detectable in the plasma” value in series [2] (IV 1 mg/kg) stood at 6 h. In addition, in series [2] (given PO, FIGS. 7 a-d), the “ability to increase plasma PLP compared to PLP itself” value is “improved ability”. In addition, the “prodrug (P5P analog) time of peak” value in series [2] (oral 10 mg/kg) came to 0.5 hours.

Regarding `Cc1ncc(COP(=O)(N[C@H](C)C(=O)OC(C)C)Oc2ccccc2)c(C=O)c1O` (mixture of isomers) [Compound 16iii, (2R)-Isopropyl 2-(((4-formyl-5-hydroxy-6-methylpyridin-3-yl)methoxy)(phenoxy)phosphorylamino)propanoate], in series [3], the “PLP exposure, racemic D-amino acid prodrug compared with L-amino acid prodrug” value is “reduced PLP exposure”. For the same compound, in series [3] (IV (and PO)), the “conversion to PLP in the plasma” value was “did not convert well to PLP”.

In the case of `CCC(CC)COC(=O)[C@H](C)NP(=O)(OCc1cnc(C)c(O)c1C=O)Oc1ccccc1` (stereo partly drawn) [Compound 16v, (2S)-2-Ethylbutyl 2-(((4-formyl-5-hydroxy-6-methylpyridin-3-yl)methoxy)(phenoxy)phosphorylamino)propanoate], the “oral availability of the prodrug (crosses gastrointestinal wall, detectable in circulation)” value in series [4] (dosed orally) is “orally bioavailable”. Also, the Tmax in series [4] (male, CD, plasma, IV 1 mg/kg, read-out: prodrug (P5P analog) time of Cmax) came to 6 min. In addition, in series [4] (oral dosing), the “plasma levels of P5P after oral dosing compared to P5P analog 16i” value was “slightly greater amounts”.

For orientation: Cmax means the peak of the concentration-time curve. With `Cc1ncc(COP(=O)(N[C@@H](Cc2ccccc2)C(=O)OC(C)C)Oc2ccccc2)c(C=O)c1O` (stereo partly drawn) [Compound 16vi, (2S)-Isopropyl 2-(((4-formyl-5-hydroxy-6-methylpyridin-3-yl)methoxy)(phenoxy)phosphorylamino)-3-phenylpropanoate], the “oral bioavailability (detection in plasma after oral dosing)” value in series [5] (dosed orally) is “did not demonstrate significant oral bioavailability; also recorded: nor P5P were detected in the plasma at any significant levels”. The Cmax in series [5] (male, CD, plasma, po, orally 10 mg/kg, read-out: dosed compound Cmax in plasma) came to 1650 ng/mL. The same compound gave a dosed compound exposure in series [5] (orally 10 mg/kg) of 1592 ng/ml*hr.

As to `Cc1ncc(COP(=O)(N[C@@H](C)C(=O)OCc2ccccc2)Oc2ccccc2)c(/C=N/CCc2ccc(C#N)cc2)c1O` (stereo partly drawn) [Compound 16xxxviii, (2S)-Benzyl 2-(((4-((E)-(4-cyanophenethylimino)methyl)-5-hydroxy-6-methylpyridin-3-yl)methoxy)(phenoxy)phosphorylamino)propanoate], in the series on plasma enzymes, the P5P formed is 0.5 µM and the “relative P5P formed” value turned out to be 14.7%.

With `Cc1ncc(COP(=O)(O)O)c(C=O)c1O` [Compound P5P, pyridoxal-5-phosphate], in series [2] (IV 1 mg/kg), the “overall exposure of P5P” value was “approximately 2200 ng/ml*hr”, the “time after which the dosed compound is no longer left/detectable in the plasma” value amounted to 4 h and the “total exposure of pyridoxal (above baseline values)” value is 770 ng/ml*hr. For the same compound, the “plasma P5P Cmax” value in series [2] (IV 1 mg/kg, PBS) turned out to be 3373 ng/mL. In series [2] (PO 10 mg/kg vs IV 1 mg/kg), the “oral bioavailability of P5P” value is 0%. Also, in series [2] (oral gavage 10 mg/kg), the “plasma pyridoxal Cmax” value turned out to be 3668 ng/mL. Further, the “P5P detected in the plasma over the 24-hour assessment period” value in series [2] (oral gavage 10 mg/kg, 10 mg/kg) is “no detectable P5P; also recorded: not detected”.
